Measured values: patent publication US8012956B2, “Tropane compounds” (Exelixis, Inc., priority 2007, dated 2011)

Each compound was assayed against HSP90 (Homo sapiens, UniProt P07900) (assay: HSP90 inhibition (HSP90 IC50)).
Assay type: biochemical

Structure (SMILES) | IC50 [nM]
NC(=O)c1ccc(C(=O)NC2CC3CCC(C2)N3c2ccc(C(=O)C3CC3)cn2)cc1N[C@H]1CC[C@H](N2CCCCC2)CC1 (stereo partly drawn) [N4-{8-[5-(cyclopropylcarbonyl)pyridin-2-yl]-8-azabicyclo[3.2.1]oct-3-endo-yl}-2-[(trans-4-piperidin-1-ylcyclohexyl)amino]benzene-1,4-dicarboxamide] | < 500
CC[C@@H](C)Nc1cc(C(=O)NC2CC3CCC(C2)N3c2ccc(C(=O)C3CC3)cn2)ccc1C(N)=O (stereo partly drawn) [N4-{8-[5-(cyclopropylcarbonyl)pyridin-2-yl]-8-azabicyclo[3.2.1]oct-3-endo-yl}-2-{[(1R)-1-methylpropyl]amino}benzene-1,4-dicarboxamide] | < 500
CC(C)[C@H](C)Nc1cc(C(=O)NC2CC3CCC(C2)N3c2ccc(C(=O)C3CC3)cn2)ccc1C(N)=O (stereo partly drawn) [N4-{8-[5-(cyclopropylcarbonyl)pyridin-2-yl]-8-azabicyclo[3.2.1]oct-3-endo-yl}-2-{[(1S)-1,2-dimethylpropyl]amino}benzene-1,4-dicarboxamide] | < 500
CC[C@H](C)Nc1cc(C(=O)NC2CC3CCC(C2)N3c2ccc(C(=O)C3CC3)cn2)ccc1C(N)=O (stereo partly drawn) [N4-{8-[5-(cyclopropylcarbonyl)pyridin-2-yl]-8-azabicyclo[3.2.1]oct-3-endo-yl}-2-{[(1S)-1-methylpropyl]amino}benzene-1,4-dicarboxamide] | < 500
NC(=O)c1ccc(C(=O)N[C@H]2C[C@H]3CC[C@@H](C2)N3c2ccc(C(=O)C3CC3)cn2)cc1NCC(F)(F)C(F)(F)F [N4-{8-[5-(cyclopropylcarbonyl)pyridln-2-yl]-8-azabicyclo[3.2.1]oct-3-endo-yl}-2-[(2,2,3,3,3-pentafluoropropyl)amino]benzene-1,4-dicarboxamide] | < 500
COc1ccc(CNC(=O)c2ccc(N3[C@@H]4CC[C@H]3C[C@@H](NC(=O)c3cccc(OC)c3C)C4)nc2)cc1OC [N {[3,4-bis(methyloxy)phenyl]methyl}-6-[3-endo-({[2-methyl-3-(methyloxy)phenyl]carbonyl}amino)-8-azabicyclo[3.2.1]oct-8-yl]pyridine-3-carboxamide] | < 500
COc1cccc(C(=O)N[C@H]2C[C@H]3CC[C@@H](C2)N3c2ccc(C(=O)Nc3ccc4c(c3)OCO4)cn2)c1C [N-1,3-benzodioxol-5-yl-6-[3-endo-({[2-methyl-3-(methyloxy)phenyl]carbonyl}amino)-8-azabicyclo[3.2.1]oct-8-yl]pyridine-3-carboxamide] | 1000 to 2000
COc1cccc(C(=O)N[C@H]2C[C@H]3CC[C@@H](C2)N3c2ccc(C(=O)NCc3ccc4c(c3)OCO4)cn2)c1C [N-(1,3-benzodioxol-5-ylmethyl)-6-[3-endo-({[2-methyl-3-(methyloxy)phenyl]carbonyl}amino)-8-azabicyclo[3.2.1]oct-8-yl]pyridine-3-carboxamide] | < 500
COc1cccc(C(=O)N[C@H]2C[C@H]3CC[C@@H](C2)N3c2ccc(C(=O)NC(C)C)cn2)c1C [N-(1-methylethyl)-6-[3-endo-({[2-methyl-3-(methyloxy)phenyl]carbonyl}amino)-8-azabicyclo[3.2.1]oct-8-yl]pyridine-3-carboxamide] | 1000 to 2000
COc1cccc(C(=O)NC2CC3CCC(C2)N3c2ccc(C(=O)NCC(O)CO)cn2)c1C (stereo not drawn) [N-(2,3-dihydroxypropyl)-6-[3-endo-({[2-methyl-3-(methyloxy)phenyl]carbonyl}amino)-8-azabicyclo[3.2.1]oct-8-yl]pyridine-3-carboxamide] | 1000 to 2000
COc1cccc(C(=O)N[C@H]2C[C@H]3CC[C@@H](C2)N3c2ccc(C(=O)NCCO)cn2)c1C [N-(2-hydroxyethyl)-6-[3-endo-({[2-methyl-3-(methyloxy)phenyl]carbonyl}amino)-8-azabicyclo[3.2.1]oct-8-yl]pyridine-3-carboxamide] | 2000 to 10000
COc1cccc(C(=O)N[C@H]2C[C@H]3CC[C@@H](C2)N3c2ccc(C(=O)NCCC(C)(C)C)cn2)c1C [N-(3,3-dimethylbutyl)-6-[3-endo-({[2-methyl-3-(methyloxy)phenyl]carbonyl}amino)-8-azabicyclo[3.2.1]oct-8-yl]pyridine-3-carboxamide] | 2000 to 10000
COc1cccc(C(=O)N[C@H]2C[C@H]3CC[C@@H](C2)N3c2ccc(C(=O)Nc3cc(C)cc(C)c3)cn2)c1C [N-(3,5-dimethylphenyl)-6-[3-endo-({[2-methyl-3-(methyloxy)phenyl]carbonyl}amino)-8-azabicyclo[3.2.1]oct-8-yl]pyridine-3-carboxamide] | 2000 to 10000
COc1cccc(C(=O)N[C@H]2C[C@H]3CC[C@@H](C2)N3c2ccc(C(=O)Nc3cccc(Cl)c3)cn2)c1C [N-(3-chlorophenyl)-6-[3-endo-({[2-methyl-3-(methyloxy)phenyl]carbonyl)amino)-8-azabicyclo[3.2.1]oct-8-yl]pyridine-3-carboxamide] | 2000 to 10000
COc1cccc(C(=O)N[C@H]2C[C@H]3CC[C@@H](C2)N3c2ccc(C(=O)NCCC(C)C)cn2)c1C [N-(3-methylbutyl)-6-[3-endo-({[2-methyl-3-(methyloxy)phenyl]carbonyl}amino)-8-azabicyclo[3.2.1]oct-8-yl]pyridine-3-carboxamide] | 1000 to 2000
COc1cccc(C(=O)N[C@H]2C[C@H]3CC[C@@H](C2)N3c2ccc(C(=O)Nc3ccc(F)cc3)cn2)c1C [N-(4-fluorophenyl)-6-[3-endo-({[2-methyl-3-(methyloxy)phenyl]carbonyl}amino)-8-azabicyclo[3.2.1]oct-8-yl]pyridine-3-carboxamide] | 1000 to 2000
COc1cccc(C(=O)N[C@H]2C[C@H]3CC[C@@H](C2)N3c2ccc(C(=O)Nc3ccc(OCCN(C)C)cc3)cn2)c1C [N-(4-{[2-(dimethylamino)ethyl]oxy}phenyl)-6-[3-endo-({[2-methyl-3-(methyloxy)phenyl]carbonyl}amino)-8-azabicyclo[3.2.1]oct-8-yl]pyridine-3-carboxamide] | 500 to 999
CN1CCN(c2ccc(CNC(=O)c3ccc(N4[C@@H]5CC[C@H]4C[C@@H](NC(=O)c4ccc(C(N)=O)cc4)C5)nc3)cc2)CC1 [N-(8-{5-[({[4-(4-methylpiperazin-1-yl)phenyl]methyl}amino)carbonyl]pyridin-2-yl}-8-azabicyclo[3.2.1]oct-3-endo-yl)benzene-1,4-dicarboxamide] | < 500
COc1cccc(C(=O)N[C@H]2C[C@H]3CC[C@@H](C2)N3c2ccc(C(=O)NCC3CC3)cn2)c1C [N-(cyclopropylmethyl)-6-[3-endo-({[2-methyl-3-(methyloxy)phenyl]carbonyl}amino)-8-azabicyclo[3.2.1]oct-8-yl]pyridine-3-carboxamide] | 500 to 999
COc1cccc(C(=O)N[C@H]2C[C@H]3CC[C@@H](C2)N3c2ccc(C(=O)NCc3ccco3)cn2)c1C [N-(furan-2-ylmethyl)-6-[3-endo-({[2-methyl-3-(methyloxy)phenyl]carbonyl}amino)-8-azabicyclo[3.2.1]oct-8-yl]pyridine-3-carboxamide] | < 500
COc1cccc(C(=O)NC2CC3CCC(C2)N3c2ccc(C(=O)NC(C)c3c(F)cc(C4CCNCC4)cc3F)cn2)c1C (stereo not drawn) [N-[1-(2,6-difluoro-4-piperidin-4-ylphenyl)ethyl]-6-[3-endo-({[2-methyl-3-(methyloxy)phenyl]carbonyl}amino)-8-azabicyclo[3.2.1]oct-8-yl]pyridine-3-carboxamide] | 2000 to 10000
COc1cccc(C(=O)NC2CC3CCC(C2)N3c2ccc(C(=O)NC(C)c3ccc(C4CCNCC4)cc3F)cn2)c1C (stereo not drawn) [N-[1-(2-fluoro-4-piperidin-4-ylphenyl)ethyl]-6-[3-endo-({[2-methyl-3-(methyloxy)phenyl]carbonyl}amino)-8-azabicyclo[3.2.1]oct-8-yl]pyridine-3-carboxamide] | < 500
COc1cccc(C(=O)NC2CC3CCC(C2)N3c2ccc(C(=O)NC(C)c3ccc(Br)cc3F)cn2)c1C (stereo not drawn) [N-[1-(4-bromo-2-fluorophenyl)ethyl]-6-[3-endo-({[2-methyl-3-(methyloxy)phenyl]carbonyl}amino)-8-azabicyclo[3.2.1]oct-8-yl]pyridine-3-carboxamide] | 2000 to 10000
COc1cccc(C(=O)NC2CC3CCC(C2)N3c2ccc(C(=O)NC(C)c3ccc(Cl)cc3)cn2)c1C (stereo not drawn) [N-[1-(4-chlorophenyl)ethyl]-6-[3-endo-({[2-methyl-3-(methyloxy)phenyl]carbonyl}amino)-8-azabicyclo[3.2.1]oct-8-yl]pyridine-3-carboxamide] | < 500
CCN(CC)CCNC(=O)c1ccc(N2[C@@H]3CC[C@H]2C[C@@H](NC(=O)c2cccc(OC)c2C)C3)nc1 [N-[2-(diethylamino)ethyl]-6-[3-endo-({[2-methyl-3-(methyloxy)phenyl]carbonyl}amino)-8-azabicyclo[3.2.1]oct-8-yl]pyridine-3-carboxamide] | 500 to 999
COc1cccc(C(=O)N[C@H]2C[C@H]3CC[C@@H](C2)N3c2ccc(C(=O)NCCN(C)C)cn2)c1C [N-[2-(dimethylamino)ethyl]-6-[3-endo-({[2-methyl-3-(methyloxy)phenyl]carbonyl}amino)-8-azabicyclo[3.2.1]oct-8-yl]pyridine-3-carboxamide] | 1000 to 2000
COc1cccc(C(=O)N[C@H]2C[C@H]3CC[C@@H](C2)N3c2ccc(C(=O)NCCCn3ccnc3)cn2)c1C [N-[3-(1H-imidazol-1-yl)propyl]-6-[3-endo-({[2-methyl-3-(methyloxy)phenyl]carbonyl}amino)-8-azabicyclo[3.2.1]oct-8-yl]pyridine-3-carboxamide] | < 500
CCN(CC)CCCNC(=O)c1ccc(N2[C@@H]3CC[C@H]2C[C@@H](NC(=O)c2cccc(OC)c2C)C3)nc1 [N-[3-(diethylamino)propyl]-6-[3-endo-({[2-methyl-3-(methyloxy)phenyl]carbonyl}amino)-8-azabicyclo[3.2.1]oct-8-yl]pyridine-3-carboxamide] | 500 to 999
COc1cccc(C(=O)N[C@H]2C[C@H]3CC[C@@H](C2)N3c2ccc(C(=O)NCCCN(C)C)cn2)c1C [N-[3-(dimethylamino)propyl]-6-[3-endo-({[2-methyl-3-(methyloxy)phenyl]carbonyl}amino)-8-azabicyclo[3.2.1]oct-8-yl]pyridine-3-carboxamide] | 500 to 999
CCOCCCNC(=O)c1ccc(N2[C@@H]3CC[C@H]2C[C@@H](NC(=O)c2cccc(OC)c2C)C3)nc1 [N-[3-(ethyloxy)propyl]-6-[3-endo-({[2-methyl-3-(methyloxy)phenyl]carbonyl}amino)-8-azabicyclo[3.2.1]oct-8-yl]pyridine-3-carboxamide] | 1000 to 2000
